Consider 39 compounds from PubChem BioAssay AID1259375 (The Scripps Research Institute Molecular Screening Center, 2018).

Broadly, the IC50 is the concentration needed to halve the response being measured.

The test addresses Microphthalmia-associated transcription factor (Homo sapiens) (UniProt O75030). Briefly: MITF inhibitors by FRET titration, dose response, biochemical, high throughput (AID 1259375).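 Also: FRET between CFP-tagged and YFP-tagged MITF protein partners.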 Particulars: FRET biochemical assay, MITF inhibition.

Calls of active or inactive are those of the source. No rule for the calls is given here.

Microphthalmia-associated transcription factor (Homo sapiens), sequence (O75030 whole entry, looked up): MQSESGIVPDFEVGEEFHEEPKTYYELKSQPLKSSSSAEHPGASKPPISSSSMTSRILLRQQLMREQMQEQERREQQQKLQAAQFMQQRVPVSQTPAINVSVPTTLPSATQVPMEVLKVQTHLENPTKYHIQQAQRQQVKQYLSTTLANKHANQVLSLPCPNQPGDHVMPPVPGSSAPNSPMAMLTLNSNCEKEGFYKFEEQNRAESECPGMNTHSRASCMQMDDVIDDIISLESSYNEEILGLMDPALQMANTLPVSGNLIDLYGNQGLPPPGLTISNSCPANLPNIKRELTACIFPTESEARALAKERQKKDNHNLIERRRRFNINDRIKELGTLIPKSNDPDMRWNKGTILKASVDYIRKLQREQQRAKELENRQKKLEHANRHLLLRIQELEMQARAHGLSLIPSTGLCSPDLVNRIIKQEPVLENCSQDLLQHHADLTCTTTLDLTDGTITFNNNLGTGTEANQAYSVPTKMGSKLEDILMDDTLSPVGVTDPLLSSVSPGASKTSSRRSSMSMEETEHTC

On to `CCC(C)C(=O)NCc1nnc2n1CCN(C/C=C/c1ccco1)CC2` (centres undefined), for which the IC50 was > 6.48 µM (inactive).

As for `O=C(O)c1ccc(O)c(C=Nc2ccc(N=Cc3cc(C(=O)O)ccc3O)cc2)c1`, the IC50 is > 6.48 µM (inactive).

For the compound `O=S(=O)(N=S(=O)(/C=C/c1ccccc1)c1ccccc1)c1ccccc1` (centres undefined), the IC50 was > 5.36 µM (inactive).

`COCCNC(=O)COC(=O)c1cc(-c2ccco2)nc2ccccc12`: the IC50 is > 6.59 µM (inactive).

`Nc1cc2c(S(=O)(=O)O)cc(S(=O)(=O)O)cc2cc1S(=O)(=O)O`: the IC50 was > 6.48 µM (inactive).

In the case of `c1ccc2c(c1)OCC(c1nc3c(-c4ccncc4)cncc3[nH]1)O2` (centres undefined), the IC50 was > 6.48 µM (inactive).

Consider `COC(C)(C)CNC(=O)C1CCN(C2CCN(Cc3cccc(C)n3)CC2)CC1`, for which the IC50 was > 6.48 µM (inactive).

Turning to `COc1ccc2c3c(cccc13)C(=O)N(C)C2=O`, the IC50 was > 6.48 µM (inactive).

Regarding `CN(Cc1ccco1)S(=O)(=O)c1ccc2[nH]cc(C(=O)O)c(=O)c2c1`, the IC50 is > 6.48 µM (inactive).

Turning to `O=C(NCC(O)C(=O)N1CCOCC1)c1cccc(Nc2ccc3[nH]ncc3c2)n1` (centres undefined), the IC50 was > 6.48 µM (inactive).

As for `O=C(O)c1ccc(CNC(=O)c2cocc2C(=O)O)o1`, the IC50 is > 7.32 µM (inactive).

On to `O=C(NCc1cccnc1)c1ccnc(-c2cccs2)c1`, for which the IC50 is > 6.93 µM (inactive).

In the case of `O=C(NCCO)c1cccc(-c2cccs2)c1`, the IC50 was > 8.06 µM (inactive).

As to `O=C(O)c1ccc(-n2cccc2)cc1Cl`, the IC50 was > 6.48 µM (inactive).

As for `Nc1cccc(N2C(=O)c3cc(S(=O)O)cc4c(N)c(S(=O)O)cc(c34)C2=O)c1`, the IC50 is > 6.48 µM (inactive).

For the compound `Cc1n[nH]c(=O)nc1NNc1ccc(C(=O)O)cc1`, the IC50 was > 6.48 µM (inactive).

For `COc1ccc(/C=C2\N=C(c3ccc4c(c3)OCO4)OC2=O)cc1Cl`, the IC50 is > 5.41 µM (inactive).

In the case of `Cc1nc(C)n(-c2ccc(Nc3cc(-n4cc(N(c5cccnc5)c5cccnc5)cn4)ccn3)cc2)n1`, the IC50 is > 6.48 µM (inactive).

`O=C1OC(c2ccc(Cl)cc2Cl)=N/C1=C\c1ccc([N+](=O)[O-])o1`: the IC50 is > 6.05 µM (inactive).

`Nc1ccc(NCCO)c(N)c1`: the IC50 was > 5.9 µM (inactive).

`COc1ccc2nc(-c3ccco3)c(-c3ccco3)nc2c1`: the IC50 entry was “inactive”.

With `NC(=O)COC(=O)c1cc2c(s1)CCC2`, the IC50 is > 6.91 µM (inactive).

Consider `NC(=O)COC(=O)/C=C/c1ccc(I)o1`, for which the IC50 is > 7.27 µM (inactive).

Turning to `C=C1C(C(=O)NCc2ccco2)C1C(=O)NCc1ccco1` (centres undefined), the IC50 was > 7.72 µM (inactive).

For the compound `S=c1[nH]nc(-c2cccnc2)n1/N=C/C=C/c1ccco1`, the IC50 is > 6.48 µM (inactive).

Regarding `N[C@@H](C(=O)N[C@@H]1C(=O)N2C(C(=O)O)=C(CSC3CNNN3)CS[C@H]12)c1ccc(O)cc1` (some centres undefined) (tested in a mixture with another compound), the IC50 is > 5.58 µM (inactive).

Take `C[C@H]1C(=O)N2CCN(C(=O)NCc3ccccc3)C[C@@H]2C(=O)N1C`: the IC50 was > 6.48 µM (inactive).

Turning to `CC(C)C[C@@H]1NC(=O)[C@H]2CN(C(=O)NC3CCCCC3)CCN2C1=O`, the IC50 is > 6.48 µM (inactive).

`N#C/C(=C(/O)COC(=O)c1cc2c(s1)CCC2)c1nc2ccccc2[nH]1`: the IC50 is > 7.1 µM (inactive).

For `CN(C)CCS(=O)c1cc(-c2cn[nH]c2)ccc1NC(=O)[C@@H]1Cc2cc(F)ccc2CN1` (some centres undefined), the IC50 is > 6.48 µM (inactive).

Take `C=CC1=C(C)C2=Cc3c(C=C)c(C)c4[n]3[Sn+2][n]3c(c(C)c(CCC(=O)O)c3=CC3=NC(=C4)C(C)=C3CCC(=O)O)=CC1=N2`: the IC50 was > 6.48 µM (inactive).

`C=CCNCCOCCOc1ccc(OCC)cc1`: the IC50 was > 6.48 µM (inactive).

Take `CN(C)[C@@H]1C(=O)C(C(N)=O)=C(O)[C@@]2(O)C(=O)C3=C(O)c4c(O)cccc4[C@@](C)(O)[C@H]3[C@H](O)[C@@H]12`: the IC50 is 4.11 µM.

`O=C(NCc1ccccc1)N1CCN2C(=O)[C@@H]3CCCN3C(=O)[C@H]2C1`: the IC50 was > 6.48 µM (inactive).

With `Cc1cc(/C=C2/C=CC(=O)O2)oc1C`, the IC50 is > 7.29 µM (inactive).

As to `Cc1ccc(C(=O)N/C(=C/c2ccc([N+](=O)[O-])o2)C(=O)O)cc1`, the IC50 was > 5.88 µM (inactive).

Turning to `O=C(O)/C=C/c1ccc([N+](=O)[O-])o1`, the IC50 is > 10.6 µM (inactive).

As for `CCOC(=O)C1C2NC(=S)N(CC)C1(C)Oc1ccc(Cl)cc12` (centres undefined), the IC50 was > 8.6 µM (inactive).

Turning to `Cc1cc(N=Cc2ccc([N+](=O)[O-])o2)ccc1S(=O)(=O)O`, the IC50 was > 6.48 µM (inactive).
